Key:
Format in all cases: biochemical
[1] = target: T1, human factor Xa (Homo sapiens, UniProt P00742); assay: Xa Assay; conditions: read-out: IC50 or % Inhibition Factor Xa (30 µM): % inhibition
T1 construct: purchased Enzyme Research Laboratories, South Bend IN
Experimental: (§1) 0.3 nM human factor Xa and 0.15 mM N-a-Benzyloxycarbonyl-D-arginyl-L-glycyl-L-arginne-nitroaniline-dihydrochloride (S-2765) are added to a 96-well assay plate containing either inhibitor or buffer (50 mM Tris-HCl, pH 8.0, 100 mM NaCl, 0.1% BSA). The reaction, in a final volume of 100 ul is measured immediately at 405 nm to determine background absorbance. The plate is incubated at room temperature for 60 min, at which time the rate of hydrolysis of the substrate is measured by monitoring the reaction at 405 nm for the release of p-nitroaniline. Percent inhibition of Xa activity is calculated from OD405nm value from the experimental and control sample.
(§2) Recombinant soluble TF, consisting of amino acids 1-219 of the mature protein sequence was expressed in E. coli and purified using a Mono Q Sepharose FPLC. Recombinant human […] was purchased from American Diagnostica, Greenwich Cr and chromogenic substrate N-Methylsulfonyl-D-phe-gly-arg-pnitroaniline was prepared by American Peptide Company, Inc., Sunnyvale, Calif. Factor Xa was obtained from Enzyme Research Laboratories, South Bend IN, thrombin from Calbiochem, La Jolla, Calif., and trypsin and L-BAPNA from Sigma, St. Louis Mo. The chromogenic substrates S-2765 and S-2238 were purchased from Chromogenix, Sweden.

[2] = target: T2, trypsin, type IX from porcine pancreas (Sus scrofa, UniProt P00761); assay: Trypsin Assay; conditions: chromogenic substrate L-BAPNA, 60 min at room temperature, OD 405 nm; read-out: IC50 or % Inhibition Trpysin II (30 µM): IC50
T2 construct: purchased Sigma, St. Louis Mo; host or cells: porcine pancreas
Experimental: 5 ug/ml trypsin, type IX from porcine pancreas and 0.375 mM N-α-Benzoyl-L-arginine-p-nitroanilide (LBAPNA) are added to a 96-well assay plate containing either inhibitor or buffer (50 mM Tris-HCl, pH 8.0, 100 mM NaCl, 0.1% BSA). The reactions, in a final volume of 100 ul are measured immediately at 405 nm to determine background absorbance. The plate is incubated at room temperature for 60 min, at which time the rate of hydrolysis of the substrate is measured by monitoring the reaction at 405 nm for the release of p-nitroaniline. Percent inhibition of trypsin activity is calculated from OD405nm value from the experimental and control sample.
as §2

[3] = target: human thrombin (Homo sapiens, UniProt P00734); assay: Thrombin Assay
Experimental: as §1, with “0.28” for “0.3”, “thrombin” for “factor Xa”, “0.06” for “0.15”, “H-D-Phenylalanyl-L-pipecolyl-L, arginine-nitroaniline, dihydrochloride” for “N-a-Benzyloxycarbonyl-D-arginyl-L-glycyl-L-arginne-nitroaniline-dihydrochloride (S-2765)”, “pnitroaniline.” for “p-nitroaniline.”, “thrombin” for “Xa”
as §2

[4] = target: T3, TF-VIIa (recombinant soluble tissue factor and recombinant human factor VIIa) (Homo sapiens, UniProt P08709); assay: TF-VIIa Assay; conditions: chromogenic substrate, 60 min at room temperature, OD 405 nm; read-out: IC50 or % Inhibition TF-VIIa (30 µM): IC50
T3 construct: purchased American Diagnostica, Greenwich; host or cells: soluble TF made in house in E. coli
Experimental: as §1, with “In this assay 100” for “0.3”, “nM recombinant soluble tissue factor and 2 nM recombinant” for “nM”, “VIIa” for “Xa and 0.15 mM N-a-Benzyloxycarbonyl-D-arginyl-L-glycyl-L-arginne-nitroaniline-dihydrochloride (S-2765)”, “containing 0.4 mM of the substrate, N-Methylsulfonyl-D-phe-gly-arg-p-nitroaniline and” for “containing”, “(5 mM CaCl2, 50” for “(50”, “TF-VIIa” for “Xa”
as §2

T1 sequence (P00742 235-488 limits assumed): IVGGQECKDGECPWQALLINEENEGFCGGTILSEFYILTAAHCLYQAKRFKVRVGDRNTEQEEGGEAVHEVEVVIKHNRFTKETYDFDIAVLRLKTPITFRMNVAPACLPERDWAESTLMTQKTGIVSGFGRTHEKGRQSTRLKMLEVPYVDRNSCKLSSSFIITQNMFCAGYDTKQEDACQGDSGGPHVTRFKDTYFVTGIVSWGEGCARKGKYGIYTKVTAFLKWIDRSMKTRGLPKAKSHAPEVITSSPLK
T1 sequence (P00742 41-179 partner limits assumed): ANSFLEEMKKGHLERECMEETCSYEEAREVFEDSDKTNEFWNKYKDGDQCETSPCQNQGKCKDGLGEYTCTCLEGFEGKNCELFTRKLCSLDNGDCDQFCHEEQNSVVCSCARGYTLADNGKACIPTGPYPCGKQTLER
T3 sequence (P08709 213-466 limits assumed): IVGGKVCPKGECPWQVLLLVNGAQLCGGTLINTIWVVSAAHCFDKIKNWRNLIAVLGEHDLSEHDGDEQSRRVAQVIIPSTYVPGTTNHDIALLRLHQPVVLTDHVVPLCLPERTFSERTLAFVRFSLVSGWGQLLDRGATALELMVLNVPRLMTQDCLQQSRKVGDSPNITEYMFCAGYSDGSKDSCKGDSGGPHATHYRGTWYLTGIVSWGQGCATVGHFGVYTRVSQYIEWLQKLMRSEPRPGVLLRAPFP
T3 sequence (P08709 61-212 partner limits assumed): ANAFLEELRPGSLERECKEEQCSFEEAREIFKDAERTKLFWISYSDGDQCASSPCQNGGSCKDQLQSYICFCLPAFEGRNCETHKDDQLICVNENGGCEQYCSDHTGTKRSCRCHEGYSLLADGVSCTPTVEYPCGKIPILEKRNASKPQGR
T3 sequence (P13726 33-251 partner limits assumed): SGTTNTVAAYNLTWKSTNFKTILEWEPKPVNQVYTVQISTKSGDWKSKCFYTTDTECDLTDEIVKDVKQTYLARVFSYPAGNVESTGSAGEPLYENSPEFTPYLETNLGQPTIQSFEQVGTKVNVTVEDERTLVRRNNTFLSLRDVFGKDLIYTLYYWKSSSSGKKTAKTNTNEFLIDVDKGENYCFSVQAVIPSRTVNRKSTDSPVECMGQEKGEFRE
T2 sequence (P00761 9-231): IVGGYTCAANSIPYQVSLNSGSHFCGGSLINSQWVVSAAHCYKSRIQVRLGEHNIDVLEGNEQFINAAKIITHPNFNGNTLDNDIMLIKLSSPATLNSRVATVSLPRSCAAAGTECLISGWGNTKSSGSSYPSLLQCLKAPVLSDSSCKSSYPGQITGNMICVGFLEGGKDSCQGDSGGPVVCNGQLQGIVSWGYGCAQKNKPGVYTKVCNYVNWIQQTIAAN

Compound: CCCn1cc(NC(C)C)c(=O)c(CC(=O)NCc2ccc(C(=N)N)cc2)c1-c1cccc(N)c1 [Example 2]
- inhibition at 100 µM [1]: 34%
- IC50 [2]: 151 nM
- inhibition at 100 µM ([3]; at 100 μM, read-out: IC50 or % Inhibition Thrombin (30 µM): % inhibition): 45%
- IC50 [4]: 560 nM

Compound: CC(C)Nc1cn(C)c(-c2cccc(N)c2)c(CC(=O)NCc2ccc(C(=N)N)cc2)c1=O [Example 1]
- inhibition at 100 µM [1]: 32%
- IC50 [2]: 33 nM
- IC50 ([3]; chromogenic substrate, 60 min at room temperature, OD 405 nm, read-out: IC50 or % Inhibition Thrombin (30 µM): IC50): 100000 nM
- IC50 [4]: 280 nM

— patent publication US20030236257A1, “Polycyclic aryl and heteroaryl substituted 4-pyridones useful for selective inhibition of the cogulation cascade” (priority 2003, published 2003)
